# Experimental data published in patent EP1745783A1, “Substituted pyrazoline compounds, their preparation and use as medicaments” (Laboratorios del Dr. Esteve S.A., priority 2005, dated 2007).
# Columns and labels:
# [1] = system: cannabinoid receptors; assay: Mouse tetrad model, agonistic effect; assay type: in vivo, Male NMRI mice; conditions: 5 mg/kg i.v., mice
# From the text: (§1) Substances with affinity for cannabinoid receptors are known to produce a wide range of pharmacological effects. It is also known that intravenous administration of a substance with affinity for cannabinoid receptors in mice produces analgesia , hypothermia, sedation and catalepsy. Individually, none of these effects can be considered as proof that a tested substance has affinity for cannabinoid-receptors, since all of these effects are common for various classes of centrally active agents. However, substances, which show all of these effects, i.e. substances that are active in this so-called tetrad model are considered to have affinity for the cannabinoid receptors. It has further been shown that cannabinoid receptor antagonists are higly effective in blocking the effects of a cannabinoid agonist in the mouse tetrad model.
# (§2) The tetrad model is described, for example, in the publication of A. C. Howlett et al, International Union of Pharmacology XXVII. Classification of Cannabinoid Receptors, Pharmacol Rev 54, 161-202 , 2002 and David R. Compton et al., "In-vivo Characterization of a Specific Cannabinoid Receptor Antagonist (SR141716A) :Inhibition of Tetrahydrocannbinol- induced Responses and Apparent Agonist Activity", J. Pharmacol. Exp. Ther. 277 , 2, 586-594, 1996. The corresponding parts of the description are hereby incorporated by reference. […]
# (§3) Before testing in the behavioral procedures given below, mice are acclimatized to the experimental setting. Pre-Treatment control values are determined for analgesia hot plate latency (in seconds), rectal temperature, sedation and catalepsy.
# In order to determine the agonistic activty of the substance to be tested, the mice are injected intravenously with the substance to be tested or the vehicle alone. 15 minutes after injection, latency in hot plate analgesia is measured. Rectal temperature, sedation and catalepsy are measured 20 minutes after injection.
# (§4) The hot plate analgesia is determined according to the method described in Woolfe D. et al. "The evaluation of analgesic action of pethidine hydrochloride (Demerol)", J. Pharmacol. Exp. Ther. 80, 300-307,1944. […]
# (§5) The mice are placed on a hot plate (Harvard Analgesimeter) at 55 ± 0.5 °C until they show a painful sensation by licking their paws or jumping and the time for these sensations to occur is recorded. This reading is considered the basal value (B). […]
# (§6) Fifteen minuts after the administration of the substance to be tested, the mice are again placed on the hot plate and the afore described procedure is repeated. This period is called the post-treatment reading (PT).
# (§7) The degree of analgesia is calculated from the formula : %MPE of Analgesia = (PT-B)/(PC-B) × 100 [formula] […]
# [2] = system: cannabinoid receptors; assay: Mouse tetrad model, antagonistic effect against Win 55212-2; assay type: in vivo, Male NMRI mice; conditions: 5 mg/kg i.v. prior to Win 55212-2 in a dose of 1,25mg/kg i.v., mice
# From the text: as §1, §2, §3
# In order to determine the antagonistic activity the identical procedure is used as for the determination of the agonistic effects, but with the difference that the substance to be evaluated for its antagonistic activity is injectected 5 minutes before the intravenous injection of 1.25 mg/kg Win-55,212 a known cannabinoid-receptor agonist.
# as §4, §5, §6, §7
structure (smiles),measurement,setting,value
"O=C(NN1CCCCC1)C1=NN(c2ccc(Cl)cc2Cl)C(c2ccc(Cl)cc2)C1 (centres unmarked) [Example 1, N-piperidinyl-5-(4-chlorophenyl)-1-(2,4-dichlorophenyl)-4,5-dihydro-1H-pyrazole-3-carboxamide]",Agonistic effect A: Hot-Plate test,[1],0
same,Agonistic effect B: Hypothermia,[1],0
same,Agonistic effect C: Catalepsy,[1],0
same,Agonistic effect D: Sedation,[1],0
same,Antagonistic Effect A: Hot-Plate test,[2],74
same,Antagonistic Effect B: Hypothermia,[2],100
same,Antagonistic Effect C: Catalepsy,[2],100
same,Antagonistic Effect D: Sedation,[2],100
